Test results published in PMC9719519, “Non-classical ferroptosis inhibition by a small molecule targeting PHB2” (Nature Communications, 2022).

How the values were obtained:
Assay in all cases: biochemical
Parameters in all cases: Eurofins recombinant human kinase profiling, remaining kinase activity as % of control, 10 uM ATP
Settings in all cases: ATP 10 uM; read-out: %Ctrl@10 μM
mTOR/FKBP12(h) = mTOR/FKBP12(h) (Homo sapiens, UniProt P42345)
Method in brief: (§1)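 Activity measured in a commercial panel of 401 recombinant human protein kinases run as a kinase profiling service.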

cKit(h) = target: T1, cKit(h) (Homo sapiens, UniProt P10721)
T1 construct: gene KIT
Method in brief: as §1

Syk(h) = Syk(h) (Homo sapiens, UniProt P43405)
Method in brief: as §1

PDHK4(h) = target: T2, PDHK4(h) (Homo sapiens, UniProt Q16654)
T2 construct: gene PDK4
T2 sequence (Q16654 whole entry): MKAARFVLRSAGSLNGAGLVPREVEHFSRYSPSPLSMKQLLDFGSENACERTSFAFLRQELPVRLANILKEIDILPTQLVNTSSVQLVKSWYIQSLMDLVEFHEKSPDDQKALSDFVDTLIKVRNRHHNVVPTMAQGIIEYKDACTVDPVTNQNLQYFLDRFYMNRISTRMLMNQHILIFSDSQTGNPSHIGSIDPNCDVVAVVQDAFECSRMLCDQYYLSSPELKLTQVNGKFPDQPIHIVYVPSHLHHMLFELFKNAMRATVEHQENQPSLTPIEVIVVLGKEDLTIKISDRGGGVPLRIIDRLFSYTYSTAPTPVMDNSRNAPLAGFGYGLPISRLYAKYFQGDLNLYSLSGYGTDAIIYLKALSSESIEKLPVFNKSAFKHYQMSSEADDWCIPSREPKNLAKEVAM
Method in brief: as §1

DYRK1B(h) = DYRK1B(h) (Homo sapiens, UniProt Q9Y463)
Method in brief: as §1

CDKL1(h) = CDKL1(h) (Homo sapiens, UniProt Q00532)
Sequence of CDKL1(h) (Q00532 whole entry): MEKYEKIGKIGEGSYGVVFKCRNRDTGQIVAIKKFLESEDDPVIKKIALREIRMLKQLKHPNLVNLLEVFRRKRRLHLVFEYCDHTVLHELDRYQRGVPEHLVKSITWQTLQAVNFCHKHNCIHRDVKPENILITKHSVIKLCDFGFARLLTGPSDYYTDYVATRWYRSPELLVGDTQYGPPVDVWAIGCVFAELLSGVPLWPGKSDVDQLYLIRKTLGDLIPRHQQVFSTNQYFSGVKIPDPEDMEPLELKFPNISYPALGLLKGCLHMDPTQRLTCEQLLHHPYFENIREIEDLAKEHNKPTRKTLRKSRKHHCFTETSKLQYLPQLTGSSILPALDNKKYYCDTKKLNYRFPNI
Method in brief: as §1

Pim-2(h) = target: T3, Pim-2(h) (Homo sapiens, UniProt Q9P1W9)
T3 construct: gene PIM2
T3 sequence (Q9P1W9 whole entry): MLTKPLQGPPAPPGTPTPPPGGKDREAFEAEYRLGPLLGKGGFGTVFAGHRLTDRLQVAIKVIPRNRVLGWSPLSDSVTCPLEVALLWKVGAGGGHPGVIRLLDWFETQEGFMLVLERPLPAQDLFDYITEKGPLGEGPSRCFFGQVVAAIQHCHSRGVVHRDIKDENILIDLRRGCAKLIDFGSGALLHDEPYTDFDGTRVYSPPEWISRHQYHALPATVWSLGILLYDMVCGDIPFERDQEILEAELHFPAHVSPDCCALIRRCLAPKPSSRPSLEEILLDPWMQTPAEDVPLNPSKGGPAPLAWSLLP
Method in brief: as §1

CaMKIß(h) = target: T4, CaMKIß(h) (Homo sapiens, UniProt Q6P2M8)
T4 construct: gene PNCK
Method in brief: as §1

LOK(h) = target: T5, LOK(h) (Homo sapiens, UniProt O94804)
T5 construct: gene STK10
Method in brief: as §1

NEK4(h) = NEK4(h) (Homo sapiens, UniProt P51957)
Method in brief: as §1

IRAK1(h) = IRAK1(h) (Homo sapiens, UniProt P51617)
Method in brief: as §1

PKG1β(h) = target: T6, PKG1β(h) (Homo sapiens, UniProt Q13976)
T6 construct: gene PRKG1; isoform 1beta
T6 sequence (Q13976 whole entry, canonical isoform): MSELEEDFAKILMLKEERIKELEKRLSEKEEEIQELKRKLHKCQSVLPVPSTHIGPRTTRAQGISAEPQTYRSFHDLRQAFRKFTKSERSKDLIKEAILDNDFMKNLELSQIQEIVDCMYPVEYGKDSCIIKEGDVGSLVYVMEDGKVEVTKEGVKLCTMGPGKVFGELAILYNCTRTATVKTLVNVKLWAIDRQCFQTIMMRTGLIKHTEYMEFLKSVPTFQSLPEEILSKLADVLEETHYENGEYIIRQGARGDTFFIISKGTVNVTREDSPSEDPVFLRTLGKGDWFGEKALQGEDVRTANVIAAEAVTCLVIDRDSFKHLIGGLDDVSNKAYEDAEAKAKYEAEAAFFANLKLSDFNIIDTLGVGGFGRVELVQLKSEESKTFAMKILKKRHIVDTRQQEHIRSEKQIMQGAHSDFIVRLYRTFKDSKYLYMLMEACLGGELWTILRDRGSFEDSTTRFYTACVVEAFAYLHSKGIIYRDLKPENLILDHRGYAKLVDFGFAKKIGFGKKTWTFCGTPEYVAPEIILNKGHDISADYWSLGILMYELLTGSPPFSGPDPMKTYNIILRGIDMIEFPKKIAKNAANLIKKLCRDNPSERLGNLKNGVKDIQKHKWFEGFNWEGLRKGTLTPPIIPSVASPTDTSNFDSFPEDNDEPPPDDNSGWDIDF
Method in brief: as §1

CHK2(R145W)(h) = target: T7, CHK2(R145W)(h) (Homo sapiens, UniProt O96017, R145W)
T7 construct: gene CHEK2
Method in brief: as §1

Tie2(Y897S)(h) = target: T8, Tie2(Y897S)(h) (Homo sapiens, UniProt Q02763, Y897S)
T8 construct: gene TEK
T8 sequence (Q02763 whole entry Y897S): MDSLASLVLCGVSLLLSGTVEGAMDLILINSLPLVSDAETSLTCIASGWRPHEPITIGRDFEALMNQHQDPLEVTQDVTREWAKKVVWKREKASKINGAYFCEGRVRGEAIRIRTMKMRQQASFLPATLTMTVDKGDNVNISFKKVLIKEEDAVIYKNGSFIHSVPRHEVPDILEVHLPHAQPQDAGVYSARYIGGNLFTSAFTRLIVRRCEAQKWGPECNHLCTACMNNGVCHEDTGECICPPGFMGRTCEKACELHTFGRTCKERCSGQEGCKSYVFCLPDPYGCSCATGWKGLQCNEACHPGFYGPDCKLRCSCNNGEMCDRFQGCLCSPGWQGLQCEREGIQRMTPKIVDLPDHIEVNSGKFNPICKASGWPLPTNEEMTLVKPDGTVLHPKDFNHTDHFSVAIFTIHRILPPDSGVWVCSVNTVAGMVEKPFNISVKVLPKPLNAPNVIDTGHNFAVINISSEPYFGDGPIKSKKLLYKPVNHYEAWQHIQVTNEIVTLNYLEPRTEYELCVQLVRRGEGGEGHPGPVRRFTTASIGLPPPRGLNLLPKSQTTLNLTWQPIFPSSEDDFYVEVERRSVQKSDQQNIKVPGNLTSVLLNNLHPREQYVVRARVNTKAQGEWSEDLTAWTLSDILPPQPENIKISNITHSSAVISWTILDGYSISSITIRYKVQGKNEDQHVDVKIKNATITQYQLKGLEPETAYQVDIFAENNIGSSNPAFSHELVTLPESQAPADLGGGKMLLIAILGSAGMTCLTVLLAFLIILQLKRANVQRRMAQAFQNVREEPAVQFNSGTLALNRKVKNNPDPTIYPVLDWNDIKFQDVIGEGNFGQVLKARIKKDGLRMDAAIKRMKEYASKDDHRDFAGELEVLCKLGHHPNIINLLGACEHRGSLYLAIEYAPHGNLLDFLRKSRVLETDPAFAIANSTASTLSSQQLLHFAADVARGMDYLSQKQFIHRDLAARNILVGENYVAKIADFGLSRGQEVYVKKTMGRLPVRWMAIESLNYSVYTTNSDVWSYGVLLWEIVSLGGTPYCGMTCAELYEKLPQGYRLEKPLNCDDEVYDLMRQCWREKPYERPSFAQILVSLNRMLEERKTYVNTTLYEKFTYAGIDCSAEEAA
Method in brief: as §1

Lyn(h) = Lyn(h) (Homo sapiens, UniProt P07948)
Sequence of Lyn(h) (P07948 whole entry): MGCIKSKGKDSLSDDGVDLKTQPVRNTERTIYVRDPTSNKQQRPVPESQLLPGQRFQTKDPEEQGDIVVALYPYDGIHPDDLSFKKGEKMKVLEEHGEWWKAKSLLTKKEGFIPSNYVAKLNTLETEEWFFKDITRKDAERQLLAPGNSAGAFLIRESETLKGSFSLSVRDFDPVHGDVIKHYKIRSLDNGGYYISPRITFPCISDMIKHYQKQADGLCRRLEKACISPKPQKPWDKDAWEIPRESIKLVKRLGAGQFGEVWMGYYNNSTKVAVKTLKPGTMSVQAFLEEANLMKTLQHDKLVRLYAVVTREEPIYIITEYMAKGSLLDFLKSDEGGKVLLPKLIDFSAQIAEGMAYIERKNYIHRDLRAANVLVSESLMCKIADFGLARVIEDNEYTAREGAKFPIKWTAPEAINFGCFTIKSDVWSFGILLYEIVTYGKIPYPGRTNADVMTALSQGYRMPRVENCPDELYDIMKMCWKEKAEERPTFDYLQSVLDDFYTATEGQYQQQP
Method in brief: as §1

CDK14/cyclinY(h) = CDK14/cyclinY(h) (Homo sapiens, UniProt O94921)
Method in brief: as §1

Plk3(h) = Plk3(h) (Homo sapiens, UniProt Q9H4B4)
Method in brief: as §1

CaMKK2(h) = CaMKK2(h) (Homo sapiens, UniProt Q96RR4)
Method in brief: as §1

MYLK2(h) = MYLK2(h) (Homo sapiens, UniProt Q9H1R3)
Sequence of MYLK2(h) (Q9H1R3 whole entry): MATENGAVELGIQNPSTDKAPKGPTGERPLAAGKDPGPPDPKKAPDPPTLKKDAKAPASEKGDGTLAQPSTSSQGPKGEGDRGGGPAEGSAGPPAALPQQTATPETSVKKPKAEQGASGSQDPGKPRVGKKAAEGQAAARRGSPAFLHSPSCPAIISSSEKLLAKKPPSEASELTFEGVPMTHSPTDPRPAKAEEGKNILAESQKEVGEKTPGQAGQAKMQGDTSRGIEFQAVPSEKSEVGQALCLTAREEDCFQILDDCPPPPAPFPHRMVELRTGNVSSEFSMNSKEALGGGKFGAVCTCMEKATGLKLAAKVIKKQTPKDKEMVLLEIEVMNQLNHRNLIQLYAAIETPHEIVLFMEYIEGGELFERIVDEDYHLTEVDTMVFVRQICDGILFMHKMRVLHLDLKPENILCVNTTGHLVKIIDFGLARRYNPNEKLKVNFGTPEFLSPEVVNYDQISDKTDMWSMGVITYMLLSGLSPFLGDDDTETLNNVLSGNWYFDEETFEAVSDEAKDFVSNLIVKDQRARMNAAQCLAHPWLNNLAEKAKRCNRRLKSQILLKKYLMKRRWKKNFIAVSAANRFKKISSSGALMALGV
Method in brief: as §1

PKCζ(h) = target: T9, PKCζ(h) (Homo sapiens, UniProt Q05513)
T9 construct: gene PRKCZ
Method in brief: as §1

PAK3(h) = PAK3(h) (Homo sapiens, UniProt O75914)
Method in brief: as §1

MEK1(h) = target: T10, MEK1(h) (Homo sapiens, UniProt Q02750)
T10 construct: gene MAP2K1
T10 sequence (Q02750 whole entry): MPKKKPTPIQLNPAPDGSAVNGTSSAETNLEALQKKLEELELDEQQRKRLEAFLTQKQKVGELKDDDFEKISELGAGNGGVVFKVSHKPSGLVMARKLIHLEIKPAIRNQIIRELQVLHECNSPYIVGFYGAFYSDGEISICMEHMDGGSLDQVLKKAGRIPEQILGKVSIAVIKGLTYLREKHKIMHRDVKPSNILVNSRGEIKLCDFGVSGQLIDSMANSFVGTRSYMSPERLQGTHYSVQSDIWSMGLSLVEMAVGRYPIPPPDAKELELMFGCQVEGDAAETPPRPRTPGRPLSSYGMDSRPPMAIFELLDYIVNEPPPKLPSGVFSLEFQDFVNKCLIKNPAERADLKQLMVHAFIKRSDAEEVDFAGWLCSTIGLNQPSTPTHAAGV
Method in brief: as §1

SAPK4(h) = target: T11, SAPK4(h) (Homo sapiens, UniProt O15264)
T11 construct: gene MAPK13
T11 sequence (O15264 whole entry): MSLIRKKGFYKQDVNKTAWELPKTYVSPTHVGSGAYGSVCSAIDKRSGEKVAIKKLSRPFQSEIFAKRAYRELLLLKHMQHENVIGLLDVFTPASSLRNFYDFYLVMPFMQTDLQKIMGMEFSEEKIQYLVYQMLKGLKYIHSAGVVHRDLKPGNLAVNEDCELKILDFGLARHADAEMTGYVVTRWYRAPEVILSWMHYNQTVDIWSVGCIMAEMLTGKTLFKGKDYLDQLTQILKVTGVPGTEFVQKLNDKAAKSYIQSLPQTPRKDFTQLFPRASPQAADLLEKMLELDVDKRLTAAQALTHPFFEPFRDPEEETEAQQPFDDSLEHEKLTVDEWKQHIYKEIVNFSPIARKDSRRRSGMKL
Method in brief: as §1

Work on `C1=C(c2nc(-c3cnn(C4CCNCC4)c3)cn3cc(-c4ccccc4)nc23)CCOC1` [YL-939] yielded a remaining activity at 10 µM (mTOR/FKBP12(h)) of 88%, a remaining activity at 10 µM (cKit(h)) of 81% and a remaining activity at 10 µM (Syk(h)) of 62%. For the same molecule, the remaining activity at 10 µM (PDHK4(h)) was 109%, the remaining activity at 10 µM (DYRK1B(h)) was 97% and the remaining activity at 10 µM (CDKL1(h)) was 96%. The remaining activity at 10 µM (Pim-2(h)) was 84%, the remaining activity at 10 µM (CaMKIß(h)) was 88% and the remaining activity at 10 µM (LOK(h)) was 95%. It also gave a remaining activity at 10 µM (NEK4(h)) of 118%, a remaining activity at 10 µM (IRAK1(h)) of 118% and a remaining activity at 10 µM (PKG1β(h)) of 83%. It also gave a remaining activity at 10 µM (CHK2(R145W)(h)) of 98%, a remaining activity at 10 µM (Tie2(Y897S)(h)) of 91% and a remaining activity at 10 µM (Lyn(h)) of 95%. It also gave a remaining activity at 10 µM (CDK14/cyclinY(h)) of 111%, a remaining activity at 10 µM (Plk3(h)) of 103% and a remaining activity at 10 µM (CaMKK2(h)) of 83%. For the same molecule, the remaining activity at 10 µM (MYLK2(h)) was 52%, the remaining activity at 10 µM (PKCζ(h)) was 94% and the remaining activity at 10 µM (PAK3(h)) was 70%. For the same molecule, the remaining activity at 10 µM (MEK1(h)) was 109% and the remaining activity at 10 µM (SAPK4(h)) was 100%.
